The target of series [1] is Brd4 bromodomain 1 (BRD4(1)) (Homo sapiens, UniProt O60885). Nature of the series: Inhibition of tetra-acetylated histone H4 binding to Brd4 bromodomain 1, measured by FRET (HTRF). More on the design: made in house; host or cells: E. coli BL21(DE3). To be noted: 2 h at room temperature. The procedure, abridged:
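N-terminally His-tagged bromodomain (200 nM), expressed in E. coli and purified by Ni affinity and size exclusion, was incubated with biotinylated tetra-acetylated H4 peptide (25-50 nM), Eu-cryptate streptavidin and XL665 anti-His in HEPES pH 7.4 buffer with 0.2% DMSO. Reactions ran 2 h at room temperature. IC50 came from the 665/620 nm fluorescence decrease.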
On the technique in general: Time-resolved FRET reads energy transfer from a long-lived donor to a nearby acceptor.

In series [2] the test system is c-myc in Human AML MV4-11 cells. Nature of the series: Inhibition of cMYC expression (mRNA, real-time PCR) in MV4-11 cells. The format is cell-based. To be noted: 3 h treatment, cMYC mRNA by real-time PCR. Summed up: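 MV4-11 cells in IMDM with 10% FBS were treated with increasing compound concentrations (DMSO 0.1%) for 3 h at 37 °C, in triplicate. Isolated mRNA was quantified by one-step TaqMan RT-qPCR, cMYC Ct normalized to cyclophilin, and fold expression given relative to DMSO control.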

Series [3] has as its system Human AML MV-4-11 cells. Nature of the series: Inhibition of cell proliferation in MV4-11 cells (CellTiter Aqueous One). In kind it is cell-based. As to conditions: MV4-11, 72 h. Summed up: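 MV4-11 cells, 5×10^4 per well in IMDM with 10% FBS, were exposed to increasing compound concentrations or 0.1% DMSO for 72 h at 37 °C in triplicate. Viability was read by MTS (CellTiter Aqueous One) absorbance at 490 nm after 3-4 h. IC50 was derived from background-corrected signal relative to DMSO.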

The subject of series [4] is hIL-6 mRNA. Nature of the series: Inhibition of hIL-6 mRNA transcription in LPS-stimulated U937 macrophages. In kind it is cell-based, Human. As to conditions: Homo sapiens, U-937, PMA-differentiated U937 cells, 1 h pretreatment, LPS 3 h, read-out: IL-6 activity. The procedure, abridged:
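PMA-differentiated U937 macrophages (60 ng/mL PMA, 3 days) pretreated 1 h with compound in 0.1% DMSO, then stimulated with 1 ug/mL E. coli LPS for 3 h at 37° C. IL-6 mRNA quantified by one-step TaqMan qRT-PCR, normalized to cyclophilin; fold expression relative to control, triplicate wells.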

In series [5] the test system is hIL-17 mRNA. Nature of the series: Inhibition of hIL-17 mRNA transcription in OKT3-stimulated peripheral blood mononuclear cells. The format is cell-based. As to conditions: human PBMC, OKT3 stimulation 6 h, read-out: IL-17 Activity. The protocol:
Human peripheral blood mononuclear cells were plated (2.0×10^5 cells per well) in a 96-well plate in 45 μL OpTimizer T Cell expansion media (Life Technologies) containing 20 ng/ml IL-2 and penicillin/streptomycin. The cells were treated with increasing concentrations of the test compound or DMSO (0.1%), and incubated at 37° C., 5% CO2 for 1 h before addition of 10× stock OKT3 antibody at 10 ug/ml in media. Triplicate wells were used for each concentration. Cells were incubated at 37° C., 5% CO2 for 6 h before the cells were harvested. At time of harvest, cells were pelleted by centrifugation at 800 rpm for 5 min. Cells were harvested using the mRNA Catcher PLUS kit according to manufacturer's instructions. The eluted mRNA was then used in a one-step quantitative real-time PCR reaction, using components of the RNA UltraSense™ One-Step Kit (Life Technologies) together with Applied Biosystems TaqMan® primer-probes for hIL-17 and Cyclophilin. Real-time PCR plates were run on a ViiA™7 real time PCR machine (Applied Biosystems), data was analyzed, normalizing the Ct values for hIL-17 to an internal control, prior to determining the fold induction of each unknown sample, relative to the control.

Usually melting point stands for the temperature of the solid-liquid transition.

Bounds are passed on as bounds.

`Cc1ncccc1-c1cc(-c2c(C)noc2C)cc2[nH]c(N3CCN(C)CC3)nc12` [Example Compound 183, 3,5-dimethyl-4-(2-(4-methylpiperazin-1-yl)-4-(2-methylpyridin-3-yl)-1H-benzo[d]imidazol-6-yl)isoxazole]: the melting point was in the range of 238 to 240 °C. Besides, the IC50 in series [1] was ≤ 0.3 µM. For the same compound, in series [2], the IC50 was ≤ 0.3 µM. Besides, in series [3], the IC50 is ≤ 0.3 µM.

For the compound `Cc1noc(C)c1-c1cc(-c2c(C)nn(C)c2C)c2nc(N3CCN(C)CC3)[nH]c2c1` [Example Compound 181, 3,5-dimethyl-4-(2-(4-methylpiperazin-1-yl)-4-(1,3,5-trimethyl-1H-pyrazol-4-yl)-1H benzo[d]imidazol-6-yl)isoxazole], the melting point fell in the range of 195 to 197 °C. Besides, the IC50 in series [1] is ≤ 0.3 µM. In addition, in series [2], the IC50 is ≤ 0.3 µM. The IC50 in series [4] is ≤ 0.3 µM. Further, the IC50 in series [3] was ≤ 0.3 µM.

The compound `Cc1ccc(C#N)cc1-c1cc(-c2c(C)noc2C)cc2[nH]c(N3CCN(C)CC3)nc12` [Example Compound 186, 3-(6-(3,5-dimethylisoxazol-4-yl)-2-(4-methylpiperazin-1-yl)-1H-benzo[d]imidazol-4-yl)-4-methylbenzonitrile] yielded a melting point of 133 to 135 °C. The IC50 in series [1] is ≤ 0.3 µM. The IC50 in series [2] is ≤ 0.3 µM. Further, the IC50 in series [3] was ≤ 0.3 µM.

Take `Cc1noc(C)c1-c1cc(-c2c(C)nn(C)c2C)c2[nH]c(S(C)(=O)=O)nc2c1` [Example Compound 195, 3,5-dimethyl-4-(2-(methylsulfonyl)-4-(1,3,5-trimethyl-1H-pyrazol-4-yl)-1H-benzo[d]imidazol-6-yl)isoxazole]: the melting point is 254 to 256 °C. In addition, the IC50 in series [1] is ≤ 0.3 µM. In series [2], this compound registered an IC50 of 0.3 to 3 µM. The IC50 in series [3] lay in the range of 0.3 to 3 µM.

On to `Cc1ccncc1-c1cc(-c2c(C)noc2C)cc2[nH]c(N3CCOCC3)nc12` [Example Compound 196, 4-(6-(3,5-dimethylisoxazol-4-yl)-4-(4-methylpyridin-3-yl)-1H-benzo[d]imidazol-2-yl)morpholine], for which the melting point is 137 to 141 °C. The IC50 in series [1] fell in the range of 0.3 to 3 µM. The IC50 in series [2] was 0.3 to 3 µM. In series [3], this compound returned an IC50 of 0.3 to 3 µM.

In the case of `Cc1noc(C)c1-c1cc(-c2cccc(C#N)c2C)c2nc(N3CCN(C)CC3)[nH]c2c1` [Example Compound 202, 3-(6-(3,5-dimethylisoxazol-4-yl)-2-(4-methylpiperazin-1-yl)-1H-benzo[d]imidazol-4-yl)-2-methylbenzonitrile], the melting point was in the range of 179 to 182 °C. Besides, in series [1], the IC50 was in the range of 0.3 to 3 µM. Also, the IC50 in series [2] is ≤ 0.3 µM. Also, the IC50 in series [3] was ≤ 0.3 µM.

For the compound `Cc1nc2c(-c3cnccc3C(F)(F)F)cc(-c3c(C)noc3C)cc2[nH]1` [Example Compound 50, 3,5-dimethyl-4-(2-methyl-4-(4-(trifluoro-methyl)pyridin-3-yl)-1H-benzo[d]imidazol-6-yl)isoxazole], the IC50 in series [1] is ≤ 0.3 µM; in series [5] it was 0.3 to 3 µM; in series [2] it was 0.3 to 3 µM; in series [4], ≤ 0.3 µM; in series [3] it was ≤ 0.3 µM.

Take `Cc1nc2c(Nc3c(C)nn(C)c3C)cc(-c3c(C)noc3C)cc2[nH]1` [Example Compound 146, 6-(3,5-dimethyl-isoxazol-4-yl)-2-methyl-N-(1,3,5-trimethyl-1H-pyrazol-4-yl)-1H-benzo[d] imidazol-4-amine]: the IC50 in series [1], in series [5], in series [2], in series [4] and in series [3] was ≤ 0.3 µM throughout.

For `Cc1noc(C)c1-c1cc(-c2ccccc2C(F)(F)F)c2nc[nH]c2c1` [Example Compound 19, 3,5-dimethyl-4-(4-(2-(trifluoromethyl)phenyl)-1H-benzo[d]imidazol-6-yl)isoxazole], the IC50 is 0.3 to 3 µM in series [1]; ≤ 0.3 µM in series [5]; 0.3 to 3 µM in series [2]; 0.3 to 3 µM in series [4]; 0.3 to 3 µM in series [3].

`Cc1noc(C)c1-c1cc(-c2c(C)noc2C)c2nc[nH]c2c1Br` [Example Compound 192, 4,4′-(7-bromo-1H-benzo[d]imidazole-4,6-diyl)bis(3,5-dimethylisoxazole)] registered a melting point of 133 to 135 °C. The IC50 in series [1] is ≤ 0.3 µM. The compound also had an IC50 in series [2] of 0.3 to 3 µM. The IC50 in series [3] was in the range of 3 to 30 µM.

`Cc1ccc(C(N)=O)cc1-c1cc(-c2c(C)noc2C)cc2[nH]c(N3CCN(C)CC3)nc12` [Example Compound 189, 3-(6-(3,5-dimethylisoxazol-4-yl)-2-(4-methylpiperazin-1-yl)-1H-benzo[d]imidazol-4-yl)-4-methylbenzamide] had a melting point of 133 to 135 °C. In addition, the IC50 in series [1] was ≤ 0.3 µM. Moreover, in series [2], the IC50 fell in the range of 0.3 to 3 µM. The compound also gave an IC50 in series [3] of 0.3 to 3 µM.

As for `Cc1nc2c(-c3c(C(F)(F)F)nn(C)c3C)cc(-c3c(C)noc3C)cc2[nH]1` [Example Compound 66, 4-(4-(1,5-dimethyl-3-(trifluoro-methyl)-1H-pyrazol-4-yl)-2-methyl-1H-benzo[d]imidazol-6-yl)-3,5-dimethyl-isoxazole], the IC50 in series [1] was ≤ 0.3 µM; in series [5] it was ≤ 0.3 µM; in series [2], 0.3 to 3 µM; in series [4], ≤ 0.3 µM; in series [3], ≤ 0.3 µM.

Take `Cc1noc(C)c1-c1cc(-c2c(C)noc2C)c2c(C)n[nH]c2c1` [Example Compound 179, 4,4′-(3-methyl-1H-indazole-4,6-diyl)bis(3,5-dimethylisoxazole)]: the melting point lay within 228 to 230 °C. In addition, the IC50 in series [1] was ≤ 0.3 µM. Also, the IC50 in series [2] lay within 0.3 to 3 µM. This compound gave an IC50 in series [3] of 0.3 to 3 µM.

The compound `Cc1noc(C)c1-c1cc(-c2c(C)nn(C)c2C)c2[nH]c([S+](C)[O-])nc2c1` (centres unmarked) [Example Compound 194, 3,5-dimethyl-4-(2-(methylsulfinyl)-4-(1,3,5-trimethyl-1H-pyrazol-4-yl)-1H-benzo[d]imidazol-6-yl)isoxazole] gave a melting point of 242 to 244 °C. Moreover, the IC50 in series [1] was ≤ 0.3 µM. The IC50 in series [3] is 0.3 to 3 µM.

Turning to `Cc1nc2c(-c3cc(F)ccc3C)cc(-c3c(C)noc3C)cc2[nH]1` [Example Compound 92, 4-(4-(5-fluoro-2-methyl-phenyl)-2-methyl-1H-benzo[d]imidazol-6-yl)-3,5-dimethyl isoxazole], the IC50 was ≤ 0.3 µM in series [1]; 0.3 to 3 µM in series [5]; 0.3 to 3 µM in series [2]; ≤ 0.3 µM in series [4]; 0.3 to 3 µM in series [3].
